According to patent publication US10026660B2, “Method of etching the back of a wafer to expose TSVs” (priority 2014, dated 2018):

Test system: rat
Assay: Rat dermal exposure toxicity (LD50)
Conditions: rat dermal exposure (skin contact)
Description: LD50 is the dosage for 50% or more of test rats to […] after skin contact with the test chemicals in a given time. Generally, the higher the LD50, the less toxic the chemical.

C[N+](C)(C)C.[OH-] [TMAH, Tetramethylammonium hydroxide] was tested, and the LD50 was 157 mg/kg.
